Results from ChEMBL document CHEMBL4052714, “Synthesis and antibacterial activity of novel 4″-O-(1-aralkyl-1,2,3-triazol-4-methyl-carbamoyl) azithromycin analogs” (2017).
Converted amounts (≈) assume the structure as drawn.

How the values were obtained:
Assay type in all cases: functional
Staphylococcus aureus [1] = test: Antibacterial activity against erythromycin-susceptible Staphylococcus aureus ATCC 25923
Streptococcus pneumoniae [2] = test: Antibacterial activity against erythromycin-susceptible Streptococcus pneumoniae ATCC 49619
Staphylococcus aureus [3] = test: Antibacterial activity against methicillin-susceptible Staphylococcus aureus ATCC 29213
Streptococcus pyogenes [4] = test: Antibacterial activity against erythromycin-susceptible Streptococcus pyogenes isolate S2
Streptococcus pyogenes [5] = test: Antibacterial activity against erythromycin-resistant Streptococcus pyogenes isolate R2
Streptococcus pneumoniae [6] = test: Antibacterial activity against erythromycin-resistant Streptococcus pneumoniae B1 expressing ermB gene
Streptococcus pneumoniae [7] = test: Antibacterial activity against erythromycin-resistant Streptococcus pneumoniae A22072 expressing mefA gene
Streptococcus pneumoniae [8] = test: Antibacterial activity against erythromycin-resistant Streptococcus pneumoniae AB11 expressing ermB/mefA gene
Escherichia coli = test: Antibacterial activity against Escherichia coli ATCC 25922
Pseudomonas aeruginosa = test: Antibacterial activity against Pseudomonas aeruginosa ATCC 27853
Streptococcus pneumoniae [9] = test: Potency index, ratio of azithromycin MIC to compound MIC for erythromycin-resistant Streptococcus pneumoniae B1 expressing ermB gene
Streptococcus pneumoniae [10] = test: Potency index, ratio of azithromycin MIC to compound MIC for erythromycin-resistant Streptococcus pneumoniae A22072 expressing mefA gene
Streptococcus pneumoniae [11] = test: Potency index, ratio of azithromycin MIC to compound MIC for erythromycin-resistant Streptococcus pneumoniae AB11 expressing ermB/mefA gene
Streptococcus pyogenes [12] = test: Potency index, ratio of azithromycin MIC to compound MIC for erythromycin-resistant Streptococcus pyogenes isolate R2
Streptococcus pyogenes [13] = test: Potency index, ratio of clarithromycin MIC to compound MIC for erythromycin-resistant Streptococcus pyogenes isolate R2
Streptococcus pneumoniae [14] = test: Potency index, ratio of clarithromycin MIC to compound MIC for erythromycin-resistant Streptococcus pneumoniae B1 expressing ermB gene
Streptococcus pneumoniae [15] = test: Potency index, ratio of clarithromycin MIC to compound MIC for erythromycin-resistant Streptococcus pneumoniae A22072 expressing mefA gene
Streptococcus pneumoniae [16] = test: Potency index, ratio of clarithromycin MIC to compound MIC for erythromycin-resistant Streptococcus pneumoniae AB11 expressing ermB/mefA gene
Staphylococcus aureus [17] = test: Potency index, ratio of azithromycin MIC to compound MIC for erythromycin-susceptible Staphylococcus aureus ATCC 25923
Streptococcus pyogenes [18] = test: Potency index, ratio of azithromycin MIC to compound MIC for erythromycin-susceptible Streptococcus pyogenes isolate S2

SMILES	MIC (Staphylococcus aureus [1]) [µg/mL]	MIC (Streptococcus pneumoniae [2]) [µg/mL]	MIC (Staphylococcus aureus [3]) [µg/mL]	MIC (Streptococcus pyogenes [4]) [µg/mL]	MIC (Streptococcus pyogenes [5]) [µg/mL]	MIC (Streptococcus pneumoniae [6]) [µg/mL]	MIC (Streptococcus pneumoniae [7]) [µg/mL]	MIC (Streptococcus pneumoniae [8]) [µg/mL]	MIC (Escherichia coli) [µg/mL]	MIC (Pseudomonas aeruginosa) [µg/mL]	Ratio (Streptococcus pneumoniae [9])	Ratio (Streptococcus pneumoniae [10])	Ratio (Streptococcus pneumoniae [11])	Ratio (Streptococcus pyogenes [12])	Ratio (Streptococcus pyogenes [13])	Ratio (Streptococcus pneumoniae [14])	Ratio (Streptococcus pneumoniae [15])	Ratio (Streptococcus pneumoniae [16])	Ratio (Staphylococcus aureus [17])	Ratio (Streptococcus pyogenes [18])
CC[C@H]1OC(=O)[C@H](C)[C@@H](O[C@H]2C[C@@](C)(OC)[C@@H](OC(=O)NCc3cn(Cc4ccc(Cl)cc4)nn3)[C@H](C)O2)[C@H](C)[C@@H](O[C@@H]2O[C@H](C)C[C@H](N(C)C)[C@H]2O)[C@](C)(O)C[C@@H](C)CN(C)[C@H](C)[C@@H](OC(=O)NCc2ccc(OC)cc2)[C@]1(C)O	0.008 (≈ 0.00689 µM)	0.125 (≈ 0.108 µM)	16 (≈ 13.8 µM)	< 0.002	1 (≈ 0.861 µM)	0.125 (≈ 0.108 µM)	0.06 (≈ 0.0517 µM)	0.125 (≈ 0.108 µM)	16 (≈ 13.8 µM)	8 (≈ 6.89 µM)	1024 - 2133	32 - 133	1024 - 2048	128	128	1024 - 2133	32 - 133	1024 - 2048	31	
CC[C@H]1OC(=O)[C@H](C)[C@@H](O[C@H]2C[C@@](C)(OC)[C@@H](OC(=O)NCc3cn(Cc4c(Cl)cccc4Cl)nn3)[C@H](C)O2)[C@H](C)[C@@H](O[C@@H]2O[C@H](C)C[C@H](N(C)C)[C@H]2O)[C@](C)(O)C[C@@H](C)CN(C)[C@H](C)[C@@H](OC(=O)NCc2ccc(OC)cc2)[C@]1(C)O	0.25 (≈ 0.209 µM)	0.06 (≈ 0.0502 µM)	16 (≈ 13.4 µM)	< 0.002	1 (≈ 0.837 µM)	0.125 (≈ 0.105 µM)	0.03 (≈ 0.0251 µM)	0.25 (≈ 0.209 µM)	16 (≈ 13.4 µM)	16 (≈ 13.4 µM)	1024 - 2133	32 - 133	1024 - 2048			1024 - 2133	32 - 133	1024 - 2048		
CC[C@H]1OC(=O)[C@H](C)[C@@H](O[C@H]2C[C@@](C)(OC)[C@@H](OC(=O)NCc3cn(Cc4ccc(Cl)cc4Cl)nn3)[C@H](C)O2)[C@H](C)[C@@H](O[C@@H]2O[C@H](C)C[C@H](N(C)C)[C@H]2O)[C@](C)(O)C[C@@H](C)CN(C)[C@H](C)[C@@H](OC(=O)NCc2ccc(OC)cc2)[C@]1(C)O	0.25 (≈ 0.209 µM)	0.06 (≈ 0.0502 µM)	16 (≈ 13.4 µM)	< 0.002	8 (≈ 6.69 µM)	0.125 (≈ 0.105 µM)	0.125 (≈ 0.105 µM)	0.25 (≈ 0.209 µM)	16 (≈ 13.4 µM)	16 (≈ 13.4 µM)	1024 - 2133	32 - 133	1024 - 2048			1024 - 2133	32 - 133	1024 - 2048		
CC[C@H]1OC(=O)[C@H](C)[C@@H](O[C@H]2C[C@@](C)(OC)[C@@H](OC(=O)NCc3cn(Cc4ccc(Cl)cc4Cl)nn3)[C@H](C)O2)[C@H](C)[C@@H](O[C@@H]2O[C@H](C)C[C@H](N(C)C)[C@H]2O)[C@](C)(O)C[C@@H](C)CN(C)[C@H](C)[C@@H](O)[C@]1(C)O	1 (≈ 0.969 µM)	0.25 (≈ 0.242 µM)	16 (≈ 15.5 µM)	0.016 (≈ 0.0155 µM)	64 (≈ 62 µM)	0.5 (≈ 0.484 µM)	0.25 (≈ 0.242 µM)	0.25 (≈ 0.242 µM)	64 (≈ 62 µM)	32 (≈ 31 µM)	256	16	1024							12.5
CC[C@H]1OC(=O)[C@H](C)[C@@H](O[C@H]2C[C@@](C)(OC)[C@@H](OC(=O)NCc3cn(Cc4ccc(C)cc4)nn3)[C@H](C)O2)[C@H](C)[C@@H](O[C@@H]2O[C@H](C)C[C@H](N(C)C)[C@H]2O)[C@](C)(O)C[C@@H](C)CN(C)[C@H](C)[C@@H](OC(=O)NCc2ccc(OC)cc2)[C@]1(C)O	0.06 (≈ 0.0526 µM)	0.125 (≈ 0.11 µM)	32 (≈ 28.1 µM)	< 0.002	8 (≈ 7.01 µM)	0.125 (≈ 0.11 µM)	0.03 (≈ 0.0263 µM)	0.25 (≈ 0.219 µM)	16 (≈ 14 µM)	64 (≈ 56.1 µM)	1024 - 2133	32 - 133	1024 - 2048			1024 - 2133	32 - 133	1024 - 2048		
